# Reference: EP4603105A1, “PHARMACEUTICAL COMPOSITION CONTAINING CYCLIC COMPOUND HAVING SELECTIVE KRAS INHIBITORY EFFECT AGAINST HRAS AND NRAS” (CHUGAI SEIYAKU KABUSHIKI KAISHA, priority 2022, dated 2024)
# *1 amine or outer side, *2 acyl side, *3 side chain or, on linkers, in order; H or OH if unused. Where a SMILES comes first, the peptide text is derived from it. Bridges are numbered along the chain shown (N, C = ends). [ ]: non-standard residue; d: D form. The star is where a group is joined. hPhe(3-Cl-4-CF3) = N[C@@H](CCc1ccc(C(F)(F)F)c(Cl)c1)C(=O)O; X19 = O=C([C@H](Cc1ccc(C(F)(F)F)cc1)N(CCCF)[*:1])[*:2]; NPrPhe(4-CF3) = CCCN[C@@H](Cc1ccc(C(F)(F)F)cc1)C(=O)O; Pip(4,4-F2) = O=C(O)[C@@H]1CC(F)(F)CCN1; NMeGly(cPent) = CN[C@H](C(=O)O)C1CCCC1; Pro(4,4-F2) = O=C(O)[C@@H]1CC(F)(F)CN1; NMeD = CN[C@@H](CC(=O)O)C(=O)O; NMeL = CN[C@@H](CC(C)C)C(=O)O; Morpholide = C1CN(*)CCO1; NMeA = CN[C@@H](C)C(=O)O; Ac5c = NC1(C(=O)O)CCCC1; Aze = O=C(O)[C@@H]1CCN1; NEtG = CCNCC(=O)O; Sar = CNCC(=O)O
# Legend:
# [1] = biological target: HRAS wild-type protein (Homo sapiens, UniProt P01112); experiment: Binding to HRAS by surface plasmon resonance (SPR), KD and KD ratio to KRAS
# In short: (§1)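 GDP-loaded biotinylated Avi-tag RAS proteins (E. coli-expressed) captured on a Biotin CAPture chip at ~100–300 RU; single-cycle kinetics at 30°C, 100 µL/min, 75 s injections of rising compound concentrations. HBS pH 7.4 running buffer with 1 mM DTT, 10 mM MgCl2, 10 µM GDP, 4% DMSO. KD from 1:1 binding fit.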
# [2] = test system: human lung cancer strain NCI-H441; assay type: cell-based
# In short: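 Readout: […] after the ATP-based reagent. Compound: serial dilutions in dimethyl sulfoxide.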
# [3] = biological target: GDP-bound NRAS wild-type protein (Homo sapiens, UniProt P01111); experiment: Binding to NRAS by surface plasmon resonance (SPR), KD and KD ratio to KRAS
# In short: as §1
# [4] = ratio of the KD value with respect to HRAS wild-type protein to the KD value with respect to KRAS
# [5] = ratio of the KD value with respect to GDP-bound NRAS wild-type protein to the KD value with respect to KRAS
# [6] = ratio of KD for HRAS wild-type protein to KD for KRAS
# [7] = ratio of KD for GDP-bound NRAS wild-type protein to KD for KRAS
# [8] = ratio of KD value for HRAS wild-type protein to KD value for KRAS (SPR)
# [9] = ratio of KD value for GDP-bound NRAS wild-type protein to KD value for KRAS (SPR)
# GDP-bound NRAS wild-type protein, sequence (P01111 whole entry): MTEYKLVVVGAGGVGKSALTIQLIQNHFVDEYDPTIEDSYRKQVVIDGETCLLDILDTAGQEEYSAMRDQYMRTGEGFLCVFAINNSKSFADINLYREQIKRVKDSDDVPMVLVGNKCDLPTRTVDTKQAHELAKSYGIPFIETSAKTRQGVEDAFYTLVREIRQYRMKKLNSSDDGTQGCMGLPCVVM
# HRAS wild-type protein, sequence (P01112 whole entry): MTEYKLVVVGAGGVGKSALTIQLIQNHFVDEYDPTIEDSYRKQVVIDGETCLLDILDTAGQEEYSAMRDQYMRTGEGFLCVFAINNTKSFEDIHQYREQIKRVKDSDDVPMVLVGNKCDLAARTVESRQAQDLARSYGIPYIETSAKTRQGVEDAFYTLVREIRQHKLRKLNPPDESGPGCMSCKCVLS
Structure (SMILES),IC50 [2],"HRAS /KRAS [1, 4]","NRAS /KRAS [3, 5]","HRAS /KRAS [1, 6]","NRAS /KRAS [3, 7]","HRAS /KRAS [1, 8]","NRAS /KRAS [3, 9]"
CC[C@H](C)[C@@H]1NC(=O)[C@H](CC(C)C)N(CC)C(=O)C[C@@H](C(=O)N2CCOCC2)N(C)C(=O)[C@H](C2CCCC2)N(C)C(=O)C2(CCCC2)NC(=O)[C@@H]2CCCN2C(=O)[C@H](CCc2cc(F)c(C(F)(F)F)c(F)c2)NC(=O)CN(C)C(=O)[C@H](Cc2ccc(C(F)(F)F)cc2)N2CCCCC[C@@H](C2=O)N(C)C(=O)CN(C)C1=O [PP0513],238 nM,B (a compound having 3 or more and less than 10 is denoted as B),B (a compound having 3 or more and less than 10 is denoted as B),–,–,–,–
CCO[C@@H]1C[C@H]2C(=O)NC3(CCC3)C(=O)N(C)[C@@H](C3CCCC3)C(=O)N(C)[C@H](C(=O)N(C)C)CC(=O)N(C)[C@@H](CCC(F)F)C(=O)N[C@@H]([C@@H](C)CC)C(=O)N(C)CC(=O)N(C)[C@H]3C/C=C\CCN(C3=O)[C@@H](Cc3ccc(C(F)(F)F)cc3)C(=O)N(C)CC(=O)N[C@@H](CCc3cc(F)c(C(F)(F)F)c(F)c3)C(=O)N2C1 [PP1121],17.3 nM,–,–,A (a compound having 10 or more and less than 20 is denoted as A),A (a compound having 10 or more and less than 20 is denoted as A),–,–
CCO[C@@H]1C[C@H]2C(=O)NC3(CCC3)C(=O)N(C)[C@@H](C3CCCC3)C(=O)N(C)[C@H](C(=O)N3CCOCC3)CC(=O)N(C)[C@@H](CC)C(=O)N[C@@H]([C@@H](C)CC)C(=O)N3CC[C@H]3C(=O)N(C)[C@H]3CC(C)=CCN(C3=O)[C@@H](Cc3ccc(C(F)(F)F)cc3)C(=O)N(C)CC(=O)N[C@@H](CCc3cc(F)c(C(F)(F)F)c(F)c3)C(=O)N2C1 [PP1042],349 nM,–,–,C (A compound having a KD ratio of 0.1 or more and less than 3 is denoted as C),C (A compound having a KD ratio of 0.1 or more and less than 3 is denoted as C),–,–
"CCCN1C(=O)CN(C)C(=O)CN(CC)C(=O)[C@H]([C@@H](C)CC)NC(=O)[C@H](CC(C)C)N(C)C(=O)C[C@@H](C(=O)N2CCOCC2)N(C)C(=O)[C@H](C2CCCC2)N(C)C(=O)C2(CCCC2)NC(=O)[C@@H]2CC(F)(F)CCN2C(=O)[C@H](CCc2ccc(C(F)(F)F)c(Cl)c2)NC(=O)CN(C)C(=O)[C@@H]1Cc1ccc(C(F)(F)F)cc1 [PP0298] ([NMeL]I[NEtG][Sar][NPrPhe(4-CF3)][Sar][hPhe(3-Cl-4-CF3)][Pip(4,4-F2)][Ac5c][NMeGly(cPent)][NMeD]-Morpholide; lactam N-11)",41.1 nM,–,–,C (A compound having a KD ratio of 0.1 or more and less than 3 is denoted as C),B (a compound having 3 or more and less than 10 is denoted as B),–,–
"CCCN1C(=O)CN(C)C(=O)CNC(=O)[C@H]([C@@H](C)CC)NC(=O)[C@H](CC(C)C)N(C)C(=O)C[C@@H](C(=O)N2CCOCC2)N(C)C(=O)[C@H](C2CCCC2)N(C)C(=O)C2(CCCC2)NC(=O)[C@@H]2CC(F)(F)CN2C(=O)[C@H](CCc2ccc(C(F)(F)F)c(Cl)c2)NC(=O)CN(C)C(=O)[C@@H]1Cc1ccc(C(F)(F)F)cc1 [PP0394] ([NMeL]IG[Sar][NPrPhe(4-CF3)][Sar][hPhe(3-Cl-4-CF3)][Pro(4,4-F2)][Ac5c][NMeGly(cPent)][NMeD]-Morpholide; lactam N-11)",2.6 nM,C (A compound having a KD ratio of 0.1 or more and less than 3 is denoted as C),C (A compound having a KD ratio of 0.1 or more and less than 3 is denoted as C),–,–,–,–
CCC[C@H]1C(=O)N[C@@H]([C@@H](C)CC)C(=O)N(C)CC(=O)N(C)[C@H]2C/C=C\CCN(C2=O)[C@@H](Cc2ccc(C)cc2)C(=O)N(C)CC(=O)N[C@@H](CCc2ccc(C(F)(F)F)c(OC)c2)C(=O)N2C[C@H](OCC)C[C@H]2C(=O)N(C)C2(CCC2)C(=O)N(C)[C@@H](C2CCCC2)C(=O)N(C)[C@H](C(=O)N2CCCCC2)CC(=O)N1C [PP3104],3.8 nM,–,–,A (a compound having 10 or more and less than 20 is denoted as A),A (a compound having 10 or more and less than 20 is denoted as A),–,–
CC[C@H](C)[C@@H]1NC(=O)[C@H](CC(C)C)N(C)C(=O)C[C@@H](C(=O)N2CCOCC2)N(C)C(=O)[C@H](C2CCCC2)N(C)C(=O)C2(CCCC2)NC(=O)[C@@H]2CCCN2C(=O)[C@H](CCc2ccc(C(F)(F)F)c(Cl)c2)NC(=O)CN(C)C(=O)[C@H](Cc2ccc(C(F)(F)F)cc2)N(CCCF)C(=O)[C@@H]2CCN2C(=O)[C@H](C)N(C)C1=O [PP0525] ([NMeL]I[NMeA][Aze][X19][Sar][hPhe(3-Cl-4-CF3)]P[Ac5c][NMeGly(cPent)][NMeD]-Morpholide; lactam N-11),2.1 nM,B (a compound having 3 or more and less than 10 is denoted as B),C (A compound having a KD ratio of 0.1 or more and less than 3 is denoted as C),–,–,–,–
"CCCN1C(=O)CN(C)C(=O)CNC(=O)[C@H]([C@@H](C)CC)NC(=O)[C@H](CC(C)C)N(C)C(=O)C[C@@H](C(=O)N2CCOCC2)NC(=O)[C@H](C2CCCC2)N(C)C(=O)C2(CCCC2)NC(=O)[C@@H]2CC(F)(F)CN2C(=O)[C@H](CCc2ccc(C(F)(F)F)c(Cl)c2)NC(=O)CN(C)C(=O)[C@@H]1Cc1ccc(C(F)(F)F)cc1 [PP0327] ([NMeL]IG[Sar][NPrPhe(4-CF3)][Sar][hPhe(3-Cl-4-CF3)][Pro(4,4-F2)][Ac5c][NMeGly(cPent)]D-Morpholide; lactam N-11)",162 nM,–,–,B (a compound having 3 or more and less than 10 is denoted as B),B (a compound having 3 or more and less than 10 is denoted as B),–,–

# Continued, in another order:
IC50 [2],Structure (SMILES),"HRAS /KRAS [1, 4]","NRAS /KRAS [3, 5]","HRAS /KRAS [1, 6]","NRAS /KRAS [3, 7]","HRAS /KRAS [1, 8]","NRAS /KRAS [3, 9]"
15.6 nM,CCO[C@@H]1C[C@H]2C(=O)NC3(CC(C)(C)C3)C(=O)N(C)[C@@H](C3CCCC3)C(=O)N(C)[C@H](C(=O)N(C)CC)CC(=O)N(C)[C@@H](CC)C(=O)N[C@@H]([C@@H](C)CC)C(=O)N(C)CC(=O)N(C)[C@H]3C/C=C\CCN(C3=O)[C@@H](Cc3ccc(C)cc3)C(=O)N(C)CC(=O)N[C@@H](CCc3ccc(C(F)(F)F)c(Cl)c3)C(=O)N2C1 [PP1880],–,–,–,–,B (a compound having 3 or more and less than 10 is denoted as B),A (a compound having 10 or more and less than 20 is denoted as A)
173 nM,CCO[C@@H]1C[C@H]2C(=O)NC3(CCC3)C(=O)N(C)[C@@H](C(CC)CC)C(=O)N(C)[C@H](C)CC(=O)N(C)[C@@H](CC3CC3)C(=O)N[C@@H]([C@@H](C)CC)C(=O)N(C)CC(=O)N(C)[C@H]3C/C=C\CCN(C3=O)[C@@H](Cc3ccc(F)cc3)C(=O)N(C)CC(=O)N[C@@H](CCc3cc(F)c(C(F)(F)F)c(F)c3)C(=O)N2C1 [PP1521],–,–,–,–,B (a compound having 3 or more and less than 10 is denoted as B),A (a compound having 10 or more and less than 20 is denoted as A)
107 nM,CCO[C@@H]1C[C@H]2C(=O)NC3(CC(C)(C)C3)C(=O)N(C)[C@@H](C(CC)CC)C(=O)N(C)[C@H](C(=O)N(C)C)CC(=O)N(C)[C@@H](C(C)C)C(=O)N[C@@H]([C@@H](C)CC)C(=O)N(C)CC(=O)N(C)[C@H]3C/C=C\CCN(C3=O)[C@@H](Cc3ccc(C)cc3)C(=O)N(C)CC(=O)N[C@@H](CCc3ccc(Cl)c(Cl)c3)C(=O)N2C1 [PP2122],A (a compound having 10 or more and less than 20 is denoted as A),AA (a compound having 20 or more is denoted as AA),–,–,–,–
